Data set [1] can be described thus: Thermogravimetric analysis (thermal stability). The data set is classed as physicochemical. As to conditions: TGA, heating rate 20° C./min. The method, then:
The thermogravimetric analysis was also conducted on a Mettler 850, TA 2920. Samples were placed into a ceramic or aluminum sample pan. A heating rate of 20° C./min was employed over a temperature range from 20° C. to 600° C.

A short description of data set [2]: Solubility of saturated solutions determined by HPLC. The data set is classed as physicochemical. The method, then: Saturated solutions of {4,6-bis(dimethylamino)-2-(4-(4-(trifluoromethyl)-benzamido)benzyl)pyrimidin-5-yl}acetic acid of Formula I in the solvents listed in Table 1 were prepared from the acid predominantly in Form I, at both 25 and 50° C.
The target in the next data set is T1, DP1 (Homo sapiens, UniProt Q13258).
T1 sequence (Q13258 1-359): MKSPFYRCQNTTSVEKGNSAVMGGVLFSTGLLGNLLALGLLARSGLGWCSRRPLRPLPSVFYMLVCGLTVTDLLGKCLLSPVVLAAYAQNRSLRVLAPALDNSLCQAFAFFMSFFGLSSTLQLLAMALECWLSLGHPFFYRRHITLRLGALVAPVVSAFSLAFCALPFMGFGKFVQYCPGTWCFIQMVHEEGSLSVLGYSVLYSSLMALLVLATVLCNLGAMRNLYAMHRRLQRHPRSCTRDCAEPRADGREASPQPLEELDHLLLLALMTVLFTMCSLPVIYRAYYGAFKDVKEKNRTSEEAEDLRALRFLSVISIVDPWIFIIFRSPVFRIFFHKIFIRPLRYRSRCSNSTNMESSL
The experiment in a line: Competitive radioligand (3H-PGD2) binding assay, DP1-transfected cells. As to conditions: competition with 1 nM 3H-PGD2, DP1-transfected cells, FIG. 11. How it is done:
The binding affinity and selectivity of the amine salts of 4,6-bis(dimethylamino)-2-(4-(4-(trifluoromethyl)benzamido)benzyl)pyrimidin-5-yl}acetic acid provided herein were evaluated using a competitive radioligand binding assay with stably-transfected cell lines expressing CRTH2 or DP1.
Prostaglandin D2 and 13,14-dihydro-15-keto PGD2 were obtained from Cayman Chemical (Ann Arbor, Mich.). Radiolabelled PGD2 (5,6,8,9,12,14,15-^3H(N)) with a specific activity of 160 Ci/mmol was obtained from PerkinElmer (Boston, Mass.). Cell culture medium RPMI 1640, HEPES buffer, phosphate buffered saline (PBS), L-glutamine, and penicillin-streptomycin solution were obtained from Mediatech Inc. (Herndon, Va.). Fetal calf serum (FCS) was obtained from Cambrex (Walkersville, Md.). Puromycin was obtained from Invitrogen (San Diego, Calif.). Poly(ethyleneimine) (PEI) was obtained from Acros Organics (Morris Plains, N.J.). […]
Radioligand binding analyses were performed according to the methods of Sugimoto et al. (J. Pharm. Exp. Therap. 2003, 305, 347-352; Eur. J. Pharmacol. 2005, 524, 30-37). […] Scintillant (50 μL; Microscint™ 20, Perkin Elmer, Boston, Mass.) was added to each well and the radioactivity was counted on a TopCount (Packard Bioscience, Meriden, Conn.). […]

The next data set has as its target T2, CRTH2 (Homo sapiens, UniProt Q9Y5Y4).
T2 construct: expressed in transfected cells
T2 sequence (Q9Y5Y4 1-395): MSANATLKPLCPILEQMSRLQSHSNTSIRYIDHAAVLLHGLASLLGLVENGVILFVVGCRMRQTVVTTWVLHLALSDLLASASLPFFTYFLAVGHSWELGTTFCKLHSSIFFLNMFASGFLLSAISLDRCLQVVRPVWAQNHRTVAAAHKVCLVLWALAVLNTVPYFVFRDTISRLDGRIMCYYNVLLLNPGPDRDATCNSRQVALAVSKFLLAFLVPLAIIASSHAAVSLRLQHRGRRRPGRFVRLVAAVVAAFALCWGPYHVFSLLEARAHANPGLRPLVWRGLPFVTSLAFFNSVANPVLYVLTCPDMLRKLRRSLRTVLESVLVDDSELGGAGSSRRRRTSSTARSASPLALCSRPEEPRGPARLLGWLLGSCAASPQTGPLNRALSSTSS
The experiment in a line: Competitive radioligand (3H-PGD2) binding assay, CRTH2-transfected cells. The settings on record: competition with 1 nM 3H-PGD2, CRTH2-transfected cells, FIG. 10.

Values after ≈ are worked out from the molar mass of the structure shown. Like-named read-outs stand apart in the source and are kept apart here.

Excerpt for CRTH2: Prostaglandin D2 and 13,14-dihydro-15-keto PGD2 were obtained from Cayman Chemical (Ann Arbor, Mich.). Radiolabelled PGD2 (5,6,8,9,12,14,15-^3H(N)) with a specific activity of 160 Ci/mmol was obtained from PerkinElmer (Boston, Mass.). Cell culture medium RPMI 1640, HEPES buffer, phosphate buffered saline (PBS), L-glutamine, and penicillin-streptomycin solution were obtained from Mediatech Inc. (Herndon, Va.). Fetal calf serum (FCS) was obtained from Cambrex (Walkersville, Md.). Puromycin was obtained from Invitrogen (San Diego, Calif.). […]
The surface expression of CRTH2 on the transfected cell lines was monitored periodically during culture and prior to each competitive radioligand binding assay. […] The cells were then washed in 2 mL of FACS buffer (PBS containing 1% BSA (Fraction V) and 0.1% sodium azide. The cells were subsequently incubated on ice with a FITC-conjugated anti-rat antibody (goat anti-rat Ig-FITC). After washed with cold FACS buffer, the cells were analyzed using a FACScan II analyzer and CellQuest software, both from Becton Dickinson (Mountain View, Calif.). […]

Consider `CN(C)c1nc(Cc2ccc(NC(=O)c3ccc(C(F)(F)F)cc3)cc2)nc(N(C)C)c1CC(=O)O` [Form I, {4,6-bis(dimethylamino)-2-(4-(4-(trifluoromethyl)benzamido)benzyl)pyrimidin-5-yl}acetic acid], for which the “decomposition temperature (no significant weight loss until decomposition)” value in data set [1] was “around 200 °C”. Moreover, the solubility in data set [2] (water, at room temperature, read-out: aqueous solubility) is around 3 µg/mL (≈ 5.98 µM).
For `CN(C)c1nc(Cc2ccc(NC(=O)c3ccc(C(F)(F)F)cc3)cc2)nc(N(C)C)c1CC(=O)O` [Formula I, {4,6-bis(dimethylamino)-2-(4-(4-(trifluoro-methyl)benzamido)benzyl)pyrimidin-5-yl}acetic acid], the “binding selectivity for CRTH2 versus DP1” value on DP1 is “binds selectively to CRTH2”. Further, at CRTH2, the “binding affinity for CRTH2” value is “high affinity”. The solubility in data set [2] (organic solvent or mixture, thermodynamic from solid, 1,4-Dioxane, 25° C., read-out: Solubility) is 3370 µg/mL; in data set [2] (organic solvent or mixture, thermodynamic from solid, 1,4-Dioxane, 50° C., read-out: Solubility), 9830 µg/mL; in data set [2] (organic solvent or mixture, thermodynamic from solid, 1-Propanol, 25° C., read-out: Solubility), 790 µg/mL; in data set [2] (organic solvent or mixture, thermodynamic from solid, 1-Propanol, 50° C., read-out: Solubility), 2410 µg/mL; in data set [2] (organic solvent or mixture, thermodynamic from solid, 2-Methoxyethanol, 25° C., read-out: Solubility), 5350 µg/mL; in data set [2] (organic solvent or mixture, thermodynamic from solid, 2-Methoxyethanol, 50° C., read-out: Solubility), 8550 µg/mL. Also, the solubility in data set [2] (organic solvent or mixture, thermodynamic from solid, Acetone, 25° C., read-out: Solubility) was 2620 µg/mL; in data set [2] (organic solvent or mixture, thermodynamic from solid, Acetone, 50° C., read-out: Solubility) it was 3340 µg/mL; in data set [2] (organic solvent or mixture, thermodynamic from solid, DMSO, 25° C., read-out: Solubility) it was above 50000 µg/mL; in data set [2] (organic solvent or mixture, thermodynamic from solid, DMSO, 50° C., read-out: Solubility), above 50000 µg/mL; in data set [2] (organic solvent or mixture, thermodynamic from solid, Ethanol, 25° C., read-out: Solubility), 1090 µg/mL; in data set [2] (organic solvent or mixture, thermodynamic from solid, Ethanol, 50° C., read-out: Solubility) it was 2250 µg/mL. Further, the solubility turned out to be 530 µg/mL in data set [2] (organic solvent or mixture, thermodynamic from solid, Ethyl acetate, 25° C., read-out: Solubility); 1270 µg/mL in data set [2] (organic solvent or mixture, thermodynamic from solid, Ethyl acetate, 50° C., read-out: Solubility); 390 µg/mL in data set [2] (organic solvent or mixture, thermodynamic from solid, Ethyl formate, 25° C., read-out: Solubility); 1510 µg/mL in data set [2] (organic solvent or mixture, thermodynamic from solid, Ethyl formate, 50° C., read-out: Solubility); 200 µg/mL in data set [2] (organic solvent or mixture, thermodynamic from solid, Isobutyl acetate, 25° C., read-out: Solubility); 830 µg/mL in data set [2] (organic solvent or mixture, thermodynamic from solid, Isobutyl acetate, 50° C., read-out: Solubility). The solubility in data set [2] (organic solvent or mixture, thermodynamic from solid, Isopropanol, 25° C., read-out: Solubility) was 770 µg/mL; in data set [2] (organic solvent or mixture, thermodynamic from solid, Isopropanol, 50° C., read-out: Solubility) it was 1960 µg/mL; in data set [2] (organic solvent or mixture, thermodynamic from solid, Isopropyl acetate, 25° C., read-out: Solubility), 270 µg/mL; in data set [2] (organic solvent or mixture, thermodynamic from solid, Isopropyl acetate, 50° C., read-out: Solubility), 780 µg/mL; in data set [2] (organic solvent or mixture, thermodynamic from solid, MIBK, 25° C., read-out: Solubility), 540 µg/mL; in data set [2] (organic solvent or mixture, thermodynamic from solid, MIBK, 50° C., read-out: Solubility), 1800 µg/mL. Besides, the solubility was found to be 90 µg/mL in data set [2] (organic solvent or mixture, thermodynamic from solid, MTBE, 25° C., read-out: Solubility); 410 µg/mL in data set [2] (organic solvent or mixture, thermodynamic from solid, MTBE, 50° C., read-out: Solubility); 2230 µg/mL in data set [2] (organic solvent or mixture, thermodynamic from solid, Methanol, 25° C., read-out: Solubility); 3040 µg/mL in data set [2] (organic solvent or mixture, thermodynamic from solid, Methanol, 50° C., read-out: Solubility); 30 µg/mL in data set [2] (organic solvent or mixture, thermodynamic from solid, Toluene, 50° C., read-out: Solubility); 790 µg/mL in data set [2] (organic solvent or mixture, thermodynamic from solid, n-Butanol, 25° C., read-out: Solubility). Besides, the solubility is 2110 µg/mL in data set [2] (organic solvent or mixture, thermodynamic from solid, n-Butanol, 50° C., read-out: Solubility); above 50000 µg/mL in data set [2] (saturated solution in DMF, organic solvent or mixture, thermodynamic from solid, DMF, 25° C., read-out: Solubility); above 50000 µg/mL in data set [2] (saturated solution in DMF, organic solvent or mixture, thermodynamic from solid, DMF, 50° C., read-out: Solubility); 1980 µg/mL in data set [2] (saturated solution in MEK, organic solvent or mixture, thermodynamic from solid, MEK, 25° C., read-out: Solubility); 4260 µg/mL in data set [2] (saturated solution in MEK, organic solvent or mixture, thermodynamic from solid, MEK, 50° C., read-out: Solubility); 11300 µg/mL in data set [2] (saturated solution in THF, organic solvent or mixture, thermodynamic from solid, THF, 25° C., read-out: Solubility). For the same molecule, the solubility in data set [2] (saturated solution in THF, organic solvent or mixture, thermodynamic from solid, THF, 50° C., read-out: Solubility) was found to be 32700 µg/mL; in data set [2] (saturated solution in acetonitrile, organic solvent or mixture, thermodynamic from solid, Acetonitrile, 25° C., read-out: Solubility), 240 µg/mL; in data set [2] (saturated solution in acetonitrile, organic solvent or mixture, thermodynamic from solid, Acetonitrile, 50° C., read-out: Solubility), 940 µg/mL; in data set [2] (saturated solution in chloroform, organic solvent or mixture, thermodynamic from solid, Chloroform, 25° C., read-out: Solubility), 170 µg/mL; in data set [2] (saturated solution in chloroform, organic solvent or mixture, thermodynamic from solid, Chloroform, 50° C., read-out: Solubility) it was 350 µg/mL; in data set [2] (saturated solution in dichloromethane, organic solvent or mixture, thermodynamic from solid, Dichloromethane, 25° C., read-out: Solubility), 70 µg/mL. Further, the solubility in data set [2] (thermodynamic from solid, Water, 50° C., read-out: Solubility) turned out to be 20 µg/mL.

For the origin of these results see US8507005B2, “Particulates of a CRTH2 antagonist” (Actimis Pharmaceuticals, Inc., priority 2007, dated 2013).
